{"source": "patent US20140106356A1", "about": "“KIT FOR DRUG METABOLISM DETERMINATION AND TOXICITY PREDICTION” (NATIONAL TAIWAN UNIVERSITY, priority 2012, published 2014)", "system": "CYP1B1", "assay": "Cell-based CYP1B1 enzyme activity assay (Luciferin-CEE luminescence, normalized to genomic DNA) in 10F-HDF spheroid-scaffold culture", "settings": "addition to the spheroid-scaffold culture of 10F-HDFs (GCH tri-copolymer scaffold); FIG. 5B", "data": [{"smiles": "COc1ccc2[nH]c([S+]([O-])Cc3ncc(C)c(OC)c3C)nc2c1", "note": "(stereo not shown) [omeprazole]", "values": [{"measurement": "induction of CYP1B1 activities", "result": "did not induce"}]}]}
